Measured values: PMC9307114, “Discovery and SAR analysis of phenylbenzo[d][1,3]dioxole-based proprotein convertase subtilisin/kexin type 9 inhibitors” (Journal of Enzyme Inhibition and Medicinal Chemistry, 2022)

Experiments:
PCSK9/LDLR PPI = PCSK9/LDLR PPI (Homo sapiens, UniProt Q8NBP7); assay: PCSK9-LDLR TR-FRET assay (PCSK9/LDLR PPI inhibitory screening); type: binding; conditions: for inhibition at 10 µM: mean of three experiments, read-out: PCSK9 percentage inhibitory rate
Procedure: The PCSK9/LDLR time-resolved fluorescence resonance energy transfer (TR-FRET) assay was performed to evaluate the activity of synthesised compounds in inhibition of PCSK9-LDLR binding. The A series compounds were firstly synthesised for the PCSK9/LDLR PPI inhibitory test. […] Therefore, a group of A12 derivatives (B series) were synthesised with 4-chlorobenzyl substituted in the amino group and various substitutions introduced to the carboxylic group. […] To confirm whether the 4-chloromethyl group is essential for the PPI inhibitory activity, a new series of compounds (C series) were synthesised with the 4-chloromethyl group replaced by 4-methoxymethyl moiety. The inhibitory activity was observed, most likely resulting from the 4-methoxymethyl substitution (Table 3).
The compounds were dissolved in 100% DMSO; then 2 µL of the dilution was added to a 20 µL of reaction to keep […] in all of reactions. The binding reaction was conducted at room temperature. The reaction mixture in assay buffer contains PCSK9, the indicated amount of the inhibitor, ligand LDLR, and the reaction dyes. The reaction mixture was incubated for 120 min before detection of the TR-FRET signal. Fluorescence signals for both the donor and acceptor dyes were measured using a Tecan Infinite M1000 plate reader. TR-FRET was recorded as the ratio of the fluorescence of the acceptor and the donor dyes (acceptor/donor). The TR-FRET data were analysed using Graphpad Prism software.

HepG2 cells = assay: MTT assay on HepG2 cells; type: cell-based; conditions: Homo sapiens, mean of three experiments, read-out: HepG2 percentage inhibitory rate

Sequence of PCSK9/LDLR PPI (Q8NBP7 153-692): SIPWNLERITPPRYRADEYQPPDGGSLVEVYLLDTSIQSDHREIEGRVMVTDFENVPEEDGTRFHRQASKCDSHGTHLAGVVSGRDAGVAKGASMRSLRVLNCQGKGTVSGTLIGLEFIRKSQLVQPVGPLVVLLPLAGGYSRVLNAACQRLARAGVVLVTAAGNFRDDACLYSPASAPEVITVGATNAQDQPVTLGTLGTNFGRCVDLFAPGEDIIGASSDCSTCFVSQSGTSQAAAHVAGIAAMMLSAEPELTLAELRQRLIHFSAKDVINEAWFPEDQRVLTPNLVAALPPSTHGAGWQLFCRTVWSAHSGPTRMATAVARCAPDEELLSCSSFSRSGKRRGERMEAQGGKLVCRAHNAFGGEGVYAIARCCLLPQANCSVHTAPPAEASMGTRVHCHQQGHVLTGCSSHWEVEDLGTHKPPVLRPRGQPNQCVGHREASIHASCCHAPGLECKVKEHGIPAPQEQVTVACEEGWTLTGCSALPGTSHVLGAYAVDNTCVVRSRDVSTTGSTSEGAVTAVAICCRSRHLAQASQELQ
Sequence of PCSK9/LDLR PPI (Q8NBP7 31-152 partner limits assumed): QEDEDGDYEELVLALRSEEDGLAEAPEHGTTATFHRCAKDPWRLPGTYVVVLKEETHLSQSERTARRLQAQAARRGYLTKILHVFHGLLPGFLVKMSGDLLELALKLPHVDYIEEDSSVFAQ

| Compound | inhibition at 10 µM (PCSK9/LDLR PPI) [%] | IC50 (PCSK9/LDLR PPI; dose-dependent IC50 plot, Figure 3, read-out: PCSK9 IC50 (inhibition of PCSK9/LDLR PPI)) [µM] | inhibition at 10 µM (HepG2 cells) [%] |
| --- | --- | --- | --- |
| COc1cc(NC(=O)c2ccc(-c3cc4c(cc3NC(=O)c3ccc(F)cc3)OCO4)cc2)cc(OC)c1OC [A1, 4-Fluoro-N-(6-(4-((3,4,5-trimethoxyphenyl)carbamoyl)phenyl)benzo[d][1,3]dioxol-5-yl)benzamide] | 27.2 ± 1.85 | – | 12.5 ± 1.06 |
| COc1cc(NC(=O)c2ccc(-c3cc4c(cc3NC(=O)c3ccc(C(F)(F)F)cc3)OCO4)cc2)cc(OC)c1OC [A2, 4-(Trifluoromethyl)-N-(6-(4-((3,4,5-trimethoxyphenyl)carbamoyl)phenyl)benzo[d][1,3]dioxol-5-yl)benzamide] | 23.1 ± 2.17 | – | 16.4 ± 1.55 |
| COc1cc(NC(=O)c2ccc(-c3cc4c(cc3NC(=O)c3ccccc3)OCO4)cc2)cc(OC)c1OC [A3, 4-(6-Benzamidobenzo[d][1,3]dioxol-5-yl)-N-(3,4,5-trimethoxyphenyl)benzamide] | 5.06 ± 0.09 | – | 8.78 ± 0.37 |
| COc1cc(NC(=O)c2ccc(-c3cc4c(cc3NC(=O)c3ccccc3C(F)(F)F)OCO4)cc2)cc(OC)c1OC [A4, 2-(Trifluoromethyl)-N-(6-(4-((3,4,5-trimethoxyphenyl)carbamoyl)phenyl)benzo[d][1,3]dioxol-5-yl)benzamide] | 5.28 ± 0.4 | – | 7.93 ± 1.04 |
| COc1cc(NC(=O)c2ccc(-c3cc4c(cc3NC(=O)c3ccccc3F)OCO4)cc2)cc(OC)c1OC [A5, 2-Fluoro-N-(6-(4-((3,4,5-trimethoxyphenyl)carbamoyl)phenyl)benzo[d][1,3]dioxol-5-yl)benzamide] | 4.77 ± 0.31 | – | 5.96 ± 0.66 |
| COc1ccc(C(=O)Nc2cc3c(cc2-c2ccc(C(=O)Nc4cc(OC)c(OC)c(OC)c4)cc2)OCO3)cc1 [A6, 4-Methoxy-N-(6-(4-((3,4,5-trimethoxyphenyl)carbamoyl)phenyl)benzo[d][1,3]dioxol-5-yl)benzamide] | 5.92 ± 0.52 | – | 5.9 ± 0.42 |
| COc1cc(NC(=O)c2ccc(-c3cc4c(cc3NC(=O)c3ccccc3Cl)OCO4)cc2)cc(OC)c1OC [A7, 2-Chloro-N-(6-(4-((3,4,5-trimethoxyphenyl)carbamoyl)phenyl)benzo[d][1,3]dioxol-5-yl)benzamide] | 5.16 ± 0.31 | – | 12.4 ± 1.07 |
| COc1cc(NC(=O)c2ccc(-c3cc4c(cc3NC(=O)c3cccc(Br)c3)OCO4)cc2)cc(OC)c1OC [A8, 3-Bromo-N-(6-(4-((3,4,5-trimethoxyphenyl)carbamoyl)phenyl)benzo[d][1,3]dioxol-5-yl)benzamide] | 5.88 ± 0.12 | – | 3.66 ± 0.24 |
| COc1cc(NC(=O)c2ccc(-c3cc4c(cc3NC(=O)c3cccc(F)c3)OCO4)cc2)cc(OC)c1OC [A9, 3-Fluoro-N-(6-(4-((3,4,5-trimethoxyphenyl)carbamoyl)phenyl)benzo[d][1,3]dioxol-5-yl)benzamide] | 22.5 ± 1.36 | – | 11.7 ± 0.88 |
| COc1ccccc1C(=O)Nc1cc2c(cc1-c1ccc(C(=O)Nc3cc(OC)c(OC)c(OC)c3)cc1)OCO2 [A10, 2-Methoxy-N-(6-(4-((3,4,5-trimethoxyphenyl)carbamoyl)phenyl)benzo[d][1,3]dioxol-5-yl)benzamide] | 3.05 ± 0.05 | – | 4.27 ± 0.16 |
| COc1cc(NC(=O)c2ccc(-c3cc4c(cc3NC(=O)c3cccc(C(F)(F)F)c3)OCO4)cc2)cc(OC)c1OC [A11, 3-(Trifluoromethyl)-N-(6-(4-((3,4,5-trimethoxyphenyl)carbamoyl)phenyl)benzo[d][1,3]dioxol-5-yl)benzamide] | 35.2 ± 3.15 | – | 7.97 ± 0.08 |
| COc1cc(NC(=O)c2ccc(-c3cc4c(cc3NC(=O)c3ccccc3C)OCO4)cc2)cc(OC)c1OC [A13, 2-Methyl-N-(6-(4-((3,4,5-trimethoxyphenyl)carbamoyl)phenyl)benzo[d][1,3]dioxol-5-yl)benzamide] | 7.65 ± 0.01 | – | 5.89 ± 0.27 |
| CCc1ccc(C(=O)Nc2cc3c(cc2-c2ccc(C(=O)Nc4cc(OC)c(OC)c(OC)c4)cc2)OCO3)cc1 [A14, 4-Ethyl-N-(6-(4-((3,4,5-trimethoxyphenyl)carbamoyl)phenyl)benzo[d][1,3]dioxol-5-yl)benzamide] | 7.83 ± 0.26 | – | 5.21 ± 0.16 |
| COc1cc(NC(=O)c2ccc(-c3cc4c(cc3NC(=O)c3cc(F)cc(F)c3)OCO4)cc2)cc(OC)c1OC [A15, 3,5-Difluoro-N-(6-(4-((3,4,5-trimethoxyphenyl)carbamoyl)phenyl)benzo[d][1,3]dioxol-5-yl)benzamide] | 4.76 ± 0.37 | – | 4.63 ± 0.22 |
| COc1cc(NC(=O)c2ccc(-c3cc4c(cc3NC(=O)c3cc(F)ccc3F)OCO4)cc2)cc(OC)c1OC [A16, 2,5-Difluoro-N-(6-(4-((3,4,5-trimethoxyphenyl)carbamoyl)phenyl)benzo[d][1,3]dioxol-5-yl)benzamide] | 4.22 ± 0.25 | – | 3.33 ± 0.23 |
| COc1cc(NC(=O)c2ccc(-c3cc4c(cc3NC(=O)c3ccc(C#N)cc3)OCO4)cc2)cc(OC)c1OC [A17, 4-Cyano-N-(6-(4-((3,4,5-trimethoxyphenyl)carbamoyl)phenyl)benzo[d][1,3]dioxol-5-yl)benzamide] | 7.91 ± 0.71 | – | 3.84 ± 0.11 |

More lines, main results first:

| inhibition at 10 µM (PCSK9/LDLR PPI) [%] | IC50 (PCSK9/LDLR PPI; dose-dependent IC50 plot, Figure 3, read-out: PCSK9 IC50 (inhibition of PCSK9/LDLR PPI)) [µM] | Compound | inhibition at 10 µM (HepG2 cells) [%] |
| --- | --- | --- | --- |
| 25.5 ± 2.22 | – | O=C(Nc1ccc(Br)cc1)c1ccc(-c2cc3c(cc2NC(=O)c2ccc(CCl)cc2)OCO3)cc1 [B2, N-(4-bromophenyl)-4-(6-(4-(chloromethyl)benzamido)benzo[d][1,3]dioxol-5-yl)benzamide] | 15.6 ± 1.24 |
| 6.18 ± 0.08 | – | COc1ccc(NC(=O)c2ccc(-c3cc4c(cc3NC(=O)c3ccc(CCl)cc3)OCO4)cc2)cc1 [B5, 4-(Chloromethyl)-N-(6-(4-((4-methoxyphenyl)carbamoyl)phenyl)benzo[d][1,3]dioxol-5-yl)benzamide] | 7.22 ± 0.15 |
| 6.97 ± 0.43 | – | CCOc1ccc(NC(=O)c2ccc(-c3cc4c(cc3NC(=O)c3ccc(CCl)cc3)OCO4)cc2)cc1 [B6, 4-(Chloromethyl)-N-(6-(4-((4-ethoxyphenyl)carbamoyl)phenyl)benzo[d][1,3]dioxol-5-yl)benzamide] | 7.04 ± 0.27 |
| 16.3 ± 0.62 | – | COc1ccc(NC(=O)c2ccc(-c3cc4c(cc3NC(=O)c3ccc(CCl)cc3)OCO4)cc2)cc1OC [B7, 4-(Chloromethyl)-N-(6-(4-((3,4-dimethoxyphenyl)carbamoyl)phenyl)benzo[d][1,3]dioxol-5-yl)benzamide] | 5.45 ± 0.39 |
| 3.15 ± 0.02 | – | Cc1ccc(NC(=O)c2ccc(-c3cc4c(cc3NC(=O)c3ccc(CCl)cc3)OCO4)cc2)cc1 [B8, 4-(Chloromethyl)-N-(6-(4-(p-tolylcarbamoyl)phenyl)benzo[d][1,3]dioxol-5-yl)benzamide] | 3.35 ± 0.16 |
| 3.36 ± 0.23 | – | CCc1ccc(NC(=O)c2ccc(-c3cc4c(cc3NC(=O)c3ccc(CCl)cc3)OCO4)cc2)cc1 [B9, 4-(Chloromethyl)-N-(6-(4-((4-ethylphenyl)carbamoyl)phenyl)benzo[d][1,3]dioxol-5-yl)benzamide] | 6.36 ± 0.42 |
| 5.87 ± 0.01 | – | CCCCCc1ccc(NC(=O)c2ccc(-c3cc4c(cc3NC(=O)c3ccc(CCl)cc3)OCO4)cc2)cc1 [B10, 4-(Chloromethyl)-N-(6-(4-((4-pentylphenyl)carbamoyl)phenyl)benzo[d][1,3]dioxol-5-yl)benzamide] | 2.4 ± 0.19 |
| 6.92 ± 0.53 | – | O=C(Nc1ccc(-c2ccccc2)cc1)c1ccc(-c2cc3c(cc2NC(=O)c2ccc(CCl)cc2)OCO3)cc1 [B11, N-([1,1′-biphenyl]-4-yl)-4-(6-(4-(chloromethyl)benzamido)benzo[d][1,3]dioxol-5-yl)benzamide] | 3.26 ± 0.22 |
| 5.16 ± 0.2 | – | O=C(Nc1ccc2c(c1)OCCO2)c1ccc(-c2cc3c(cc2NC(=O)c2ccc(CCl)cc2)OCO3)cc1 [B12, 4-(Chloromethyl)-N-(6-(4-((2,3-dihydrobenzo[b][1,4]dioxin-6-yl)carbamoyl)phenyl)benzo[d][1,3]dioxol-5-yl)benzamide] | 5.76 ± 0.24 |
| 5.64 ± 0.04 | – | O=C(Nc1cc2c(cc1-c1ccc(C(=O)N3CCN(c4ccccc4)CC3)cc1)OCO2)c1ccc(CCl)cc1 [B13, 4-(Chloromethyl)-N-(6-(4-(4-phenylpiperazine-1-carbonyl)phenyl)benzo[d][1,3]dioxol-5-yl)benzamide] | 3.21 ± 0.26 |
| 7.22 ± 0.71 | – | CCc1ccc(N2CCN(C(=O)c3ccc(-c4cc5c(cc4NC(=O)c4ccc(CCl)cc4)OCO5)cc3)CC2)cc1 [B15, 4-(Chloromethyl)-N-(6-(4-(4-(4-ethylphenyl)piperazine-1-carbonyl)phenyl)benzo[d][1,3]dioxol-5-yl)benzamide] | 8.91 ± 0.62 |
| 7.94 ± 0.03 | – | O=C(Nc1cc2c(cc1-c1ccc(C(=O)N3CCN(c4ccc(Cl)cc4)CC3)cc1)OCO2)c1ccc(CCl)cc1 [B16, 4-(Chloromethyl)-N-(6-(4-(4-(4-chlorophenyl)piperazine-1-carbonyl)phenyl)benzo[d][1,3]dioxol-5-yl)benzamide] | 10.2 ± 0.91 |
| – | 12.9 | O=C(Nc1cccc(-c2nc3ccccc3o2)c1)c1ccc(NC(=O)c2cc3ccccc3o2)cc1 [SBC-115337, reference compound] | – |
